Test results taken from article PMC11642889, “Structure-Based Screening and Optimization of PafA Inhibitors with Potent Anti-Tuberculosis Activity” (International Journal of Molecular Sciences, 2024).

Target: Mtb PafA (Mycobacterium tuberculosis, UniProt P9WNU7)
Test: fluorescent pupylation assay of PanB with 5-carboxyfluorescein-cys-Pup^E
Assay type: biochemical

Sequence of Mtb PafA (P9WNU7 whole entry, looked up): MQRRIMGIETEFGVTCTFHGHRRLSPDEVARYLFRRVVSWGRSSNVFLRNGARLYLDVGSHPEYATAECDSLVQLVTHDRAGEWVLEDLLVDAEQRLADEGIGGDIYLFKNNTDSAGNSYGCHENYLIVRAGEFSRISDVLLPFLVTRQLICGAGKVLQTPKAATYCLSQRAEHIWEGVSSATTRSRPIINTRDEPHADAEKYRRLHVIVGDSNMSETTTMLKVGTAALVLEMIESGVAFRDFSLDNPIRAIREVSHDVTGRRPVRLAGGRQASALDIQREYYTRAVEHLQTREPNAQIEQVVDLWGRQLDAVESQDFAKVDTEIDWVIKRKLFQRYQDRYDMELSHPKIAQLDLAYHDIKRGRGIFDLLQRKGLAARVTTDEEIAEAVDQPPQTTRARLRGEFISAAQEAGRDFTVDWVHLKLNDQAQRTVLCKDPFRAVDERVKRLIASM

`NS(=O)(=O)c1ccc(NC(=S)NCCc2ccc(F)cc2)cc1` [Pi-2-26] gave an IC50 of 46.2 ± 7.96 nM.
